Reference: article PMC9221371, “Flavonoid Derivatives as Potential Cholinesterase Inhibitors in Scopolamine-Induced Amnesic Mice: An In Vitro, In Vivo and Integrated Computational Approach” (Brain Sciences, 2022)
Read-outs that look alike come from different tables or passages of the source.

Experiments:
[1] = biological target: T1, brain acetylcholinesterase (Mus musculus, UniProt P21836); type: in vivo; design: unit not given here; details: brain homogenate, n = 8
T1 construct: The brain was extracted, and a homogenate (10% w/v) in 0.1 M of phosphate buffer (pH 7.4) was prepared; from tissue; host or cells: mouse brain homogenate
T1 sequence (P21836 32-614): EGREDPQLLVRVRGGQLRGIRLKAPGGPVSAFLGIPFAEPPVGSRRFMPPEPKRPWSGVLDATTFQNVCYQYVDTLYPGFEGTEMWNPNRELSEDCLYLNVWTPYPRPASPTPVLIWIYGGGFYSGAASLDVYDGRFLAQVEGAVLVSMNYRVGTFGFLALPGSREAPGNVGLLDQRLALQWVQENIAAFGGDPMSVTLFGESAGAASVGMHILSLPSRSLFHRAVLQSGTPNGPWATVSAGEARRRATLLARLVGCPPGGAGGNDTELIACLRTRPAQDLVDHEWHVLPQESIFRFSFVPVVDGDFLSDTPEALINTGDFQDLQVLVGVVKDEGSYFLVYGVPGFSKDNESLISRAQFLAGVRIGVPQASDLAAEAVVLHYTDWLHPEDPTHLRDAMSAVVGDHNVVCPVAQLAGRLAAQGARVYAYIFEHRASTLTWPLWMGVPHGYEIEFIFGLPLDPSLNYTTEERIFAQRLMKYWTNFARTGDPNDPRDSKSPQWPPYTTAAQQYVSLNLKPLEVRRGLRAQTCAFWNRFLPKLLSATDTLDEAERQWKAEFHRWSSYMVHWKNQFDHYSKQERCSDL
Description: (§1) The animals in the control (normal) and scopolamine amnesic groups were administered vehicle (Tween-80, 2%) only. Treated animals received F1–F5 suspended in Tween-80 (2%) p.o. at their respective doses for a period of 4 weeks. […] For assessing behavioral effects using the Y-Maze Paradigm and novel object discrimination (NOD) task, scopolamine (1 mg/kg, i.p.) was given to the different groups, 30 min after the respective treatments, to induce memory impairment (amnesia) in mice. All of the tests were performed between 8:00 a.m. and 6:00 p.m. to avoid sham results in the performance of the animals.
(§2) The brain was extracted, and a homogenate (10% w/v) in 0.1 M of phosphate buffer (pH 7.4) was prepared by centrifugation for the assessment of brain oxidative status and estimating brain acetylcholinesterase activity. Catalase (CAT), superoxide dismutase (SOD), glutathione (GSH) and level of lipid peroxidation (malondialdehyde, MDA) were quantified as oxidative stress markers.

[2] = tested on: scopolamine-induced amnesic mice; test: Y-Maze Paradigm, spontaneous alternation in scopolamine-induced amnesic model; type: in vivo, Balb/C mice; details: for Spontaneous Alternation Performance: scopolamine 1 mg/kg i.p., n = 8
Text: (§3) For assessment of acute toxicity of the flavones (F1–F5), animals (21 in number) were divided into groups of 3 animals each. The reported protocols by Lorke were followed with slight modification to perform tests in two phases. In the first phase, one (control) group of animals were given Tween-80 (2%), and oral doses of F1–F5 were given to the remaining groups, respectively, at various doses (mg/kg body weight). […] The animals were housed in plastic cages. After two weeks, the animals were sacrificed by euthanasia with isoflurane in a humane manner for assessment of the effects on total weight and weight of the vital organs. The biochemical parameters of blood and histological studies of vital organs (kidney and liver tissue) were also assessed. […] The preliminary pharmacological activity was assessed at various dose concentrations of F1–F5 (2.5–20 mg/kg b.w.) to determine the effective dose for assessment of cognitive function using animal models.
as §1
(§4) Behavioral tasks on the Y-Maze Paradigm and “NOD” tasks were conducted in the 5th week of study to determine learning and memory functions. The apparatus arena was cleaned with 70% ethanol during the inter-trial interval to prevent a confounding error due to the influence of odor [20, 21].
The Y-Maze task is a non-invasive and reliable behavioral test that was used for memory assessment of spontaneous alternation for F1–F5 based on previously reported protocols. A single session of Y-Maze was used to record the spontaneous alternation behavior of the animals to determine exploratory behavior and instant memory functioning. The apparatus was made of three arms in a “Y” shape (35 cm × 8 cm × 15 cm) with an equilateral triangular central area. In brief, each of the mice, previously naive to the maze, was placed at the terminal end of one arm. The animals were allowed to move and explore freely for 8 min through the maze. The number of arm entries was noted. One arm entry was considered when the hind paws of the animal were completely placed inside the arm, and the series of arm entries were documented. The spontaneous alternation in percent was calculated.

[3] = biological target: T2, BuChE (equine serum lyophilized) (Equus caballus, UniProt P81908); test: biochemical; details: triplicate; read-out: BChE IC50 (converted)
T2 construct: purchased Sigma-Aldrich (Taufkirchen, Germany); host or cells: equine serum
T2 sequence (P81908 whole entry): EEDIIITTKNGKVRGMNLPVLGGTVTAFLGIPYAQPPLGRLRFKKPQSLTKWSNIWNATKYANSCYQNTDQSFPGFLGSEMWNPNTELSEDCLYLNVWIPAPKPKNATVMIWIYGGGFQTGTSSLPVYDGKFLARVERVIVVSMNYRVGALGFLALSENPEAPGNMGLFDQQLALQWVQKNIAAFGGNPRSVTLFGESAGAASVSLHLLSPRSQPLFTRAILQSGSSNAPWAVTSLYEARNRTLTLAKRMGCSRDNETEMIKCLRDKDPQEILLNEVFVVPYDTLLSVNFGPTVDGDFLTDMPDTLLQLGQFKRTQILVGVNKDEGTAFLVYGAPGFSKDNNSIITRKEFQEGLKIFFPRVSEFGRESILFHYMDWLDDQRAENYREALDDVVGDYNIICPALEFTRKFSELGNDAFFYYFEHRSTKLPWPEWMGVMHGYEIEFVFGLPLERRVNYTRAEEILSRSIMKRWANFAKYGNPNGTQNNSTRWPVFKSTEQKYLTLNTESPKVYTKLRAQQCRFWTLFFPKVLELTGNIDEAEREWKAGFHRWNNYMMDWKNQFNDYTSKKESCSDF
Description: (§5) Synthetic flavonoids F1–F5 previously synthesized by our group were used in the study.
(§6) For the determination of acetylcholinesterase inhibitory potentials, AChE and BuChE were used. […] To the tube were added DTNB (100 µL) and buffer (2.4 mL). The tube was incubated at 25 °C for 5 min as pre-incubation. The reaction was started by adding ATChI (40 µL), and the mixture was incubated at 25 °C for 20 min. The absorbance at 412 nm was measured spectrophotometrically in triplicate. […] The data were recorded in triplicate, and IC50 was calculated.

[4] = biological target: T3, AChE (electric eel type-VI-S) (Electrophorus electricus, UniProt O42275); test: biochemical; details: 25 °C, triplicate
T3 construct: purchased Sigma-Aldrich (Taufkirchen, Germany)
T3 sequence (O42275 24-633): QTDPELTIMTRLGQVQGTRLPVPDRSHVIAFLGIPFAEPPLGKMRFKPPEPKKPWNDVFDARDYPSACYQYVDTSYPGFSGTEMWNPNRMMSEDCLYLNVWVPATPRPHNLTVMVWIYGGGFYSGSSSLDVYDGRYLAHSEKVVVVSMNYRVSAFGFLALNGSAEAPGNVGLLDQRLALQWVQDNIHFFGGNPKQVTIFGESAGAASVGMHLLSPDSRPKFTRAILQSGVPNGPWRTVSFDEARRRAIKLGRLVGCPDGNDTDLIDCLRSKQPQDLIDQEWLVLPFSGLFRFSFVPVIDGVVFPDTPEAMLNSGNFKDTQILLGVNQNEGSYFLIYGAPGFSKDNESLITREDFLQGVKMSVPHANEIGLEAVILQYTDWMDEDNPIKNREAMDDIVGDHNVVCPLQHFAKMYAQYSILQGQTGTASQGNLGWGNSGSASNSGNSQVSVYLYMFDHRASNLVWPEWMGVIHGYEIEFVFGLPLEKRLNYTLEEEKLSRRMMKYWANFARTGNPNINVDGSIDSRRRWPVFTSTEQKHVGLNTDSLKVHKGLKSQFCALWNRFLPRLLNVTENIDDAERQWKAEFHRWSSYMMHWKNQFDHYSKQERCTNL
Description: as §5, §6

[5] = tested on: Balb/C mice; test: Acute toxicity study; type: in vivo; details: n = 3; for ALP / AST / Creatinine / Glucose / Total Cholesterol / Triglyceride: blood; for Kidney Weight / Liver Weight / Total Weight: mice
Text: Two weeks before the experiment, the animals were acclimatized to laboratory conditions.
as §3

[6] = tested on: scopolamine-induced amnesic mice; test: Novel object discrimination (NOD) task in scopolamine-induced amnesic model; type: in vivo, Balb/C mice; details: scopolamine 1 mg/kg i.p., n = 8
Description: as §1, §4
Animals were challenged for the novel object discrimination task for F1–F5 as per previously reported protocols. After habituation and acclimatization, animals in each group had two consecutive object exploration trials (5 min each) for this test, with a break of 4 h in between two trials. In the familiarization phase (sample), the animals were challenged to explore two objects similar to each other. In the second phase (test), any of the two objects was changed by a new object. Exploration time in sec for the objects, including chewing, licking, sniffing or pointing the vibrissae of nose towards the object, was recorded. The discrimination ratio (%DI) was then determined using:(T novel object − T familiar object)/(T novel object + T familiar object) × 100(1)

[7] = tested on: brains of scopolamine-induced amnesic mice; test: Antioxidant enzyme activities and oxidative stress markers in brain homogenate; type: in vivo, Balb/C mice; details: for GSH / MDA: n = 8
Description: as §1, §2

[8] = 7.5 mg/kg b.w., n = 8, 7.5 mg/kg

O=c1cc(-c2cc(Cl)ccc2Cl)oc2ccccc12 [Compound F5]
level of AChE ([1]; 7.5 mg/kg b.w.): 15.34 ± 0.69
level of AChE ([1]; 15 mg/kg b.w.): 14.67 ± 0.67
Spontaneous Alternation Performance ([2]; 7.5 mg/kg b.w. p.o. 4 weeks): 67.94 ± 1.51%
Spontaneous Alternation Performance ([2]; 15 mg/kg b.w. p.o. 4 weeks): 73.11 ± 1.63%
Spontaneous alternation performance (preliminary, selection of doses) ([2]; Table S1, dose 2.5 mg/kg b.w.): 38.63±1.78
Spontaneous alternation performance (preliminary, selection of doses) ([2]; Table S1, dose 5 mg/kg b.w.): 43.87±1.94
Spontaneous alternation performance (preliminary, selection of doses) ([2]; Table S1, dose 7.5 mg/kg b.w.): 66.53±1.89
Spontaneous alternation performance (preliminary, selection of doses) ([2]; Table S1, dose 10 mg/kg b.w.): 66.97±1.72
Spontaneous alternation performance (preliminary, selection of doses) ([2]; Table S1, dose 12.5 mg/kg b.w.): 67.33±2.05
IC50 [3]: 376 µM
IC50 [4]: 338 µM
ALP ([5]; 600 mg/kg b.w. oral): 134.41 ± 2.81 U/L
AST ([5]; 600 mg/kg b.w. oral): 108.37 ± 1.97 U/L
Creatinine ([5]; 600 mg/kg b.w. oral): 0.28 ± 0.04 mg/dL
Glucose ([5]; 600 mg/kg b.w. oral): 86.98 ± 2.12 mg/dL
Total Cholesterol ([5]; 600 mg/kg b.w. oral): 102.91 ± 1.93 mg/dL
Triglyceride ([5]; 600 mg/kg b.w. oral): 95.31 ± 2.61 mg/dL
Kidney Weight ([5]; 600 mg/kg b.w. oral): 0.30 ± 0.21 g
Liver Weight ([5]; 600 mg/kg b.w. oral): 1.24 ± 0.25 g
Total Weight ([5]; 600 mg/kg b.w. oral): 20.97 ± 1.66 g
ALP ([5]; 1000 mg/kg b.w. oral): 135.87 ± 2.24 U/L
AST ([5]; 1000 mg/kg b.w. oral): 107.41 ± 2.03 U/L
Creatinine ([5]; 1000 mg/kg b.w. oral): 0.35 ± 0.05 mg/dL
Glucose ([5]; 1000 mg/kg b.w. oral): 87.01 ± 2.21 mg/dL
Total Cholesterol ([5]; 1000 mg/kg b.w. oral): 103.02 ± 1.79 mg/dL
Triglyceride ([5]; 1000 mg/kg b.w. oral): 96.08 ± 2.01 mg/dL
Kidney Weight ([5]; 1000 mg/kg b.w. oral): 0.31 ± 0.24 g
Liver Weight ([5]; 1000 mg/kg b.w. oral): 1.22 ± 0.29 g
Total Weight ([5]; 1000 mg/kg b.w. oral): 21.88 ± 1.89 g
ALP ([5]; 2000 mg/kg b.w. oral): 133.91 ± 3.71 U/L
AST ([5]; 2000 mg/kg b.w. oral): 108.39 ± 1.89 U/L
Creatinine ([5]; 2000 mg/kg b.w. oral): 0.33 ± 0.06 mg/dL
Glucose ([5]; 2000 mg/kg b.w. oral): 86.89 ± 1.98 mg/dL
Total Cholesterol ([5]; 2000 mg/kg b.w. oral): 102.73 ± 2.10 mg/dL
Triglyceride ([5]; 2000 mg/kg b.w. oral): 95.37 ± 1.98 mg/dL
Kidney Weight ([5]; 2000 mg/kg b.w. oral): 0.29 ± 0.20 g
Liver Weight ([5]; 2000 mg/kg b.w. oral): 1.26 ± 0.21 g
Total Weight ([5]; 2000 mg/kg b.w. oral): 22.91 ± 1.67 g
ALP ([5]; 3000 mg/kg b.w. oral): 134.02 ± 3.28 U/L
AST ([5]; 3000 mg/kg b.w. oral): 107.76 ± 1.92 U/L
Creatinine ([5]; 3000 mg/kg b.w. oral): 0.30 ± 0.04 mg/dL
Glucose ([5]; 3000 mg/kg b.w. oral): 85.34 ± 2.01 mg/dL
Total Cholesterol ([5]; 3000 mg/kg b.w. oral): 103.09 ± 1.83 mg/dL
Triglyceride ([5]; 3000 mg/kg b.w. oral): 96.50 ± 2.05 mg/dL
Kidney Weight ([5]; 3000 mg/kg b.w. oral): 0.30 ± 0.19 g
Liver Weight ([5]; 3000 mg/kg b.w. oral): 1.23 ± 0.25 g
Total Weight ([5]; 3000 mg/kg b.w. oral): 22.65 ± 1.91 g
discrimination index (%DI) ([6]; 7.5 mg/kg b.w. p.o. 4 weeks): 59.76 ± 1.24%
discrimination index (%DI) ([6]; 15 mg/kg b.w. p.o. 4 weeks): 62.12 ± 1.28%
GSH ([7]; 7.5 mg/kg b.w.): 37.28 ± 1.60 μg/mg of Protein
MDA ([7]; 7.5 mg/kg b.w.): 14.98 ± 1.22 nmol/mg Protein
CAT [7, 8]: 24.18 ± 1.41 U/mg of Protein
SOD [7, 8]: 9.88 ± 1.49 U/mg of Protein
GSH ([7]; 15 mg/kg b.w.): 39.01 ± 1.39 μg/mg of Protein
MDA ([7]; 15 mg/kg b.w.): 14.48 ± 1.38 nmol/mg Protein
CAT ([7]; 15 mg/kg b.w., n = 8, 15 mg/kg): 24.91 ± 1.29 U/mg of Protein
SOD ([7]; 15 mg/kg b.w., n = 8, 15 mg/kg): 10.20 ± 1.62 U/mg of Protein
